# Experiments:
# [1] = target: T1, G12V-mutant human KRAS (amino acid residues 1-188) (Homo sapiens, UniProt P01116, G12V); experiment: KRAS Binding Competition Assay (AlphaScreen; biotinylated KRpep-2d analogue), G12V; settings: geometric mean, read-out: KRAS GMean IC50 (uM) MUTATION: G12V
# T1 construct: G12V-mutant human KRAS (amino acid residues 1-188) with FLAG tag was purified from E. coli; made in house; host or cells: E. coli
# [2] = target: T2, G12C-mutant human KRAS (amino acid residues 1-188) (Homo sapiens, UniProt P01116, G12C); experiment: KRAS Binding Disruption Assay (AlphaScreen; biotinylated KRpep-2d analogue or RAF1-RBD), G12C; settings: geometric mean, read-out: KRAS GMean IC50 (uM) MUTATION: G12C
# T2 construct: G12D or G12C-mutant human KRAS (amino acid residues 1-188) with FLAG tag; made in house; host or cells: E. coli
# Procedure, shortened: (§1)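 AlphaScreen readout: signal falls as compound displaces biotinylated KRpep-2d analogue or RAF1-RBD from mutant KRAS. Both partners at 5-20 nM, 1 h binding at 25° C, then 10 μg/mL Anti-Flag acceptor and streptavidin donor beads for 1 h. IC50 by nonlinear regression of % inhibition.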
# [3] = target: T3, G12D-mutant human KRAS (amino acid residues 1-188) (Homo sapiens, UniProt P01116, G12D); experiment: KRAS Binding Disruption Assay (AlphaScreen; biotinylated KRpep-2d analogue or RAF1-RBD), G12D; settings: KRAS G12D; geometric mean; read-out: KRAS GMean IC50 (uM) MUTATION: G12D
# T3 construct: G12D or G12C-mutant human KRAS (amino acid residues 1-188) with FLAG tag; made in house; host or cells: E. coli
# Procedure, shortened: as §1
Structure (SMILES),IC50 [1] [µM],IC50 [2] [µM],IC50 [3] [µM]
"O=C(NC1CNC1)N1[C@@H]2CC[C@H]1CN(c1nc(OCC34CCCN3CCC4)nc3cc(-c4cc(O)cc5ccccc45)ccc13)C2 [P-0125, (1R,5S)-N-(azetidin-3-yl)-3-(7-(3-hydroxynaphthalen-1-yl)-2-((tetrahydro-1H-pyrrolizin-7a(5H)-yl)methoxy)quinazolin-4-yl)-3,8-diazabicyclo[3.2.1]octane-8-carboxamide]",0.0001 to 10,0.0001 to 10,0.0001 to 10
"O=C(NCC1CCNC1)N1[C@@H]2CC[C@H]1CN(c1nc(OCC34CCCN3CCC4)nc3cc(-c4cc(O)cc5ccccc45)ccc13)C2 (stereo partly drawn) [P-0127, (1R,5S)-3-(7-(3-hydroxynaphthalen-1-yl)-2-((tetrahydro-1H-pyrrolizin-7a(5H)-yl)methoxy)quinazolin-4-yl)-N-(pyrrolidin-3-ylmethyl)-3,8-diazabicyclo[3.2.1]octane-8-carboxamide]",0.0001 to 10,0.0001 to 10,0.0001 to 10
"Cn1cc(NC(=O)N2[C@@H]3CC[C@H]2CN(c2nc(OCC45CCCN4CCC5)nc4cc(-c5cc(O)cc6ccccc56)ccc24)C3)cn1 [P-0128, (1R,5S)-3-(7-(3-hydroxynaphthalen-1-yl)-2-((tetrahydro-1H-pyrrolizin-7a(5H)-yl)methoxy)quinazolin-4-yl)-N-(1-methyl-1H-pyrazol-4-yl)-3,8-diazabicyclo[3.2.1]octane-8-carboxamide]",0.0001 to 10,0.0001 to 10,0.0001 to 10
"O=C(N[C@H]1CC[C@@H](O)C1)N1[C@@H]2CC[C@H]1CN(c1nc(OCC34CCCN3CCC4)nc3cc(-c4cc(O)cc5ccccc45)ccc13)C2 [P-0130, (1R,5S)-N-((1S,3R)-3-hydroxycyclopentyl)-3-(7-(3-hydroxynaphthalen-1-yl)-2-((tetrahydro-1H-pyrrolizin-7a(5H)-yl)methoxy)quinazolin-4-yl)-3,8-diazabicyclo[3.2.1]octane-8-carboxamide]",0.0001 to 10,0.0001 to 10,0.0001 to 10
"O=C(N[C@H]1CC[C@H](O)C1)N1[C@@H]2CC[C@H]1CN(c1nc(OCC34CCCN3CCC4)nc3cc(-c4cc(O)cc5ccccc45)ccc13)C2 [P-0131, (1R,5S)-N-((1S,3S)-3-hydroxycyclopentyl)-3-(7-(3-hydroxynaphthalen-1-yl)-2-((tetrahydro-1H-pyrrolizin-7a(5H)-yl)methoxy)quinazolin-4-yl)-3,8-diazabicyclo[3.2.1]octane-8-carboxamide]",0.0001 to 10,0.0001 to 10,0.0001 to 10
"CN1CC[C@H](NC(=O)N2[C@@H]3CC[C@H]2CN(c2nc(OCC45CCCN4CCC5)nc4cc(-c5cc(O)cc6ccccc56)ccc24)C3)C1 [P-0132, (1R,5S)-3-(7-(3-hydroxynaphthalen-1-yl)-2-((tetrahydro-1H-pyrrolizin-7a(5H)-yl)methoxy)quinazolin-4-yl)-N-((S)-1-methylpyrrolidin-3-yl)-3,8-diazabicyclo[3.2.1]octane-8-carboxamide]",0.0001 to 10,0.0001 to 10,0.0001 to 10
"CN1CC[C@@H](NC(=O)N2[C@@H]3CC[C@H]2CN(c2nc(OCC45CCCN4CCC5)nc4cc(-c5cc(O)cc6ccccc56)ccc24)C3)C1 [P-0133, (1R,5S)-3-(7-(3-hydroxynaphthalen-1-yl)-2-((tetrahydro-1H-pyrrolizin-7a(5H)-yl)methoxy)quinazolin-4-yl)-N-((R)-1-methylpyrrolidin-3-yl)-3,8-diazabicyclo[3.2.1]octane-8-carboxamide]",0.0001 to 10,0.0001 to 10,0.0001 to 10
"O=C(NC1CCNCC1)N1[C@@H]2CC[C@H]1CN(c1nc(OCC34CCCN3CCC4)nc3cc(-c4cc(O)cc5ccccc45)ccc13)C2 [P-0134, (1R,5S)-3-(7-(3-hydroxynaphthalen-1-yl)-2-((tetrahydro-1H-pyrrolizin-7a(5H)-yl)methoxy)quinazolin-4-yl)-N-(piperidin-4-yl)-3,8-diazabicyclo[3.2.1]octane-8-carboxamide]",0.0001 to 10,0.0001 to 10,0.0001 to 10
"Oc1cc(-c2c(F)cc3c(N4C[C@H]5CC[C@@H](C4)N5)nc(OCC45CCCN4CCC5)nc3c2F)c2c(Cl)cccc2c1 [P-0137, 4-(4-((1R,5S)-3,8-diazabicyclo[3.2.1]octan-3-yl)-6,8-difluoro-2-((tetrahydro-1H-pyrrolizin-7a(5H)-yl)methoxy)quinazolin-7-yl)-5-chloronaphthalen-2-ol]",0.0001 to 10,0.0001 to 10,0.0001 to 10

# Results, then the compound that gave them:
IC50 [1] [µM],IC50 [2] [µM],IC50 [3] [µM],Structure (SMILES)
0.0001 to 10,0.0001 to 10,0.0001 to 10,"CC1(NC(=O)N2[C@@H]3CC[C@H]2CN(c2nc(OCC45CCCN4CCC5)nc4cc(-c5cc(O)cc6ccccc56)ccc24)C3)CCNC1 (stereo partly drawn) [P-0124, (1R,5S)-3-(7-(3-hydroxynaphthalen-1-yl)-2-((tetrahydro-1H-pyrrolizin-7a(5H)-yl)methoxy)quinazolin-4-yl)-N-(3-methylpyrrolidin-3-yl)-3,8-diazabicyclo[3.2.1]octane-8-carboxamide]"
0.0001 to 10,0.0001 to 10,0.0001 to 10,"O=C(Nc1cn[nH]c1)N1[C@@H]2CC[C@H]1CN(c1nc(OCC34CCCN3CCC4)nc3cc(-c4cc(O)cc5ccccc45)ccc13)C2 [P-0126, (1R,5S)-3-(7-(3-hydroxynaphthalen-1-yl)-2-((tetrahydro-1H-pyrrolizin-7a(5H)-yl)methoxy)quinazolin-4-yl)-N-(1H-pyrazol-4-yl)-3,8-diazabicyclo[3.2.1]octane-8-carboxamide]"
0.0001 to 10,0.0001 to 10,0.0001 to 10,"O=C(NC1CCOC1)N1[C@@H]2CC[C@H]1CN(c1nc(OCC34CCCN3CCC4)nc3cc(-c4cc(O)cc5ccccc45)ccc13)C2 (stereo partly drawn) [P-0129, (1R,5S)-3-(7-(3-hydroxynaphthalen-1-yl)-2-((tetrahydro-1H-pyrrolizin-7a(5H)-yl)methoxy)quinazolin-4-yl)-N-(tetrahydrofuran-3-yl)-3,8-diazabicyclo[3.2.1]octane-8-carboxamide]"
0.0001 to 10,0.0001 to 10,0.0001 to 10,"O=C1NCCC1NC(=O)N1[C@@H]2CC[C@H]1CN(c1nc(OCC34CCCN3CCC4)nc3cc(-c4cc(O)cc5ccccc45)ccc13)C2 (stereo partly drawn) [P-0135, (1R,5S)-3-(7-(3-hydroxynaphthalen-1-yl)-2-((tetrahydro-1H-pyrrolizin-7a(5H)-yl)methoxy)quinazolin-4-yl)-N-(2-oxopyrrolidin-3-yl)-3,8-diazabicyclo[3.2.1]octane-8-carboxamide]"
0.0001 to 10,0.0001 to 10,0.0001 to 10,"Oc1cc(-c2ccc3c(N4C[C@H]5CC[C@@H](C4)N5)nc(OCC45CCCN4CCC5)nc3c2F)c2c(Cl)cccc2c1 [P-0136, 4-(4-((1R,5S)-3,8-diazabicyclo[3.2.1]octan-3-yl)-8-fluoro-2-((tetrahydro-1H-pyrrolizin-7a(5H)-yl)methoxy)quinazolin-7-yl)-5-chloronaphthalen-2-ol]"
0.0001 to 10,0.0001 to 10,0.0001 to 10,"CN1CC[C@@H](NC(=O)N2[C@@H]3CC[C@H]2CN(c2nc(OCC45CCCN4CCC5)nc4c(F)c(-c5cc(O)cc6ccccc56)ccc24)C3)C1 [P-0186, (1R,5S)-3-(8-fluoro-7-(3-hydroxynaphthalen-1-yl)-2-((tetrahydro-1H-pyrrolizin-7a(5H)-yl)methoxy)quinazolin-4-yl)-N-((R)-1-methylpyrrolidin-3-yl)-3,8-diazabicyclo[3.2.1]octane-8-carboxamide]"

# From patent US20230081426A1, “COMPOUNDS AND METHODS FOR KRAS MODULATION AND INDICATIONS THEREFOR” (Plexxikon Inc., priority 2020, published 2023)
